Like-named read-outs stand apart in the source and are kept apart here.
Tests used:
Test in all cases: biochemical
[1] = biological target: T1, panel of 374 wild-type kinases (Homo sapiens, UniProt P51957); details: read-out: % Enzyme Activity (relative to DMSO controls), NEK4
T1 construct: purchased Reaction Biology Corporation

[2] = biological target: T2, panel of 374 wild-type kinases (Homo sapiens, UniProt P57059)
T2 construct: purchased Reaction Biology Corporation

[3] = biological target: T3, panel of 374 wild-type kinases (Homo sapiens, UniProt Q16620); details: read-out: % Enzyme Activity (relative to DMSO controls), kinase TRKB
T3 construct: purchased Reaction Biology Corporation

[4] = biological target: T4, panel of 374 wild-type kinases (Homo sapiens, UniProt Q6VAB6); details: read-out: % Enzyme Activity (relative to DMSO controls), KSR2
T4 construct: purchased Reaction Biology Corporation
T4 sequence (Q6VAB6 1-950): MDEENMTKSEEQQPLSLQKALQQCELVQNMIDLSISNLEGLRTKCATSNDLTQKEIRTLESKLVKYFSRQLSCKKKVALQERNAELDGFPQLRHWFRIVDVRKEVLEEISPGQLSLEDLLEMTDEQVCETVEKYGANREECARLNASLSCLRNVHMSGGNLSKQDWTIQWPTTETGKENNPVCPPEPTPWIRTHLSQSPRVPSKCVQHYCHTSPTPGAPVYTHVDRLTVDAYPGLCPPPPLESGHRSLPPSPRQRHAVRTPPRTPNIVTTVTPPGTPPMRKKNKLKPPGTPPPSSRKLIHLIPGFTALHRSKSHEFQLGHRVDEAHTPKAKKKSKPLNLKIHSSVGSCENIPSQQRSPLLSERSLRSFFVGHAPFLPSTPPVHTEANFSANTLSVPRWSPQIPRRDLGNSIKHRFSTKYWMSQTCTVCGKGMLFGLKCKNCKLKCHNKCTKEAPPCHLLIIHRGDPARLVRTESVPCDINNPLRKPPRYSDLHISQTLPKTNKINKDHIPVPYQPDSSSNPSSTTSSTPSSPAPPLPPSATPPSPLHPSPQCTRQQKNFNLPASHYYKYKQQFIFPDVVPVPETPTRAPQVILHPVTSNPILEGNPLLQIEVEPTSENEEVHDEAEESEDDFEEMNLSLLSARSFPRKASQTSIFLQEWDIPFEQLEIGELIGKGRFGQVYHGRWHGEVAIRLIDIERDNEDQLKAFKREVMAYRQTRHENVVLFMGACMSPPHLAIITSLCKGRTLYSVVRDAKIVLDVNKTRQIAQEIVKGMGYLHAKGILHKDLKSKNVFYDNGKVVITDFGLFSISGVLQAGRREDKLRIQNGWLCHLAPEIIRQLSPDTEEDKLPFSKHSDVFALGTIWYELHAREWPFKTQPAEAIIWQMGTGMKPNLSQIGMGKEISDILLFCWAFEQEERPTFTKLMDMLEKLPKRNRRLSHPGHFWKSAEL

[5] = biological target: T5, panel of 374 wild-type kinases (Homo sapiens, UniProt Q8N568); details: read-out: % Enzyme Activity (relative to DMSO controls), DCAMKL2
T5 construct: purchased Reaction Biology Corporation
T5 sequence (Q8N568 1-766): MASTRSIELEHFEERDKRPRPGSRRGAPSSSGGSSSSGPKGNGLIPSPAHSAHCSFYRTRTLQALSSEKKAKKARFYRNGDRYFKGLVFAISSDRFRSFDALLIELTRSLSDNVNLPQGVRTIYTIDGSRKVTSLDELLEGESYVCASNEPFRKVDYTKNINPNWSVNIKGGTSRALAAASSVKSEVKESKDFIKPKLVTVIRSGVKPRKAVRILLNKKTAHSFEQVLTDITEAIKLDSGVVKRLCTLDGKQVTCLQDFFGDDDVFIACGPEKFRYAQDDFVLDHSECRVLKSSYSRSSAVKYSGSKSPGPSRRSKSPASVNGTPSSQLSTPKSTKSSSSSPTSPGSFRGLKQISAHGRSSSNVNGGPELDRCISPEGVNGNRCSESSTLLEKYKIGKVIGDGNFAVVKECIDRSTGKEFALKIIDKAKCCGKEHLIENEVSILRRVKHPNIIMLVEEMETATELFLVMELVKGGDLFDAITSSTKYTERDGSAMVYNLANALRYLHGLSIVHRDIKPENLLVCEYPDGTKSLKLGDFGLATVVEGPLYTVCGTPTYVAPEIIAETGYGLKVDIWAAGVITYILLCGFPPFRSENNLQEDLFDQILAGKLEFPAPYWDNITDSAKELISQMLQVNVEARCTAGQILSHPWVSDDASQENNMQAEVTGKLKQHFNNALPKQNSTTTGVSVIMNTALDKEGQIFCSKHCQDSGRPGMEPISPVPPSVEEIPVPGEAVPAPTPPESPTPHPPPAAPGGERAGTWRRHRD

[6] = biological target: T6, panel of 374 wild-type kinases (Homo sapiens, UniProt Q9BXA7); details: read-out: % Enzyme Activity (relative to DMSO controls), kinase STK22D/TSSK1
T6 construct: purchased Reaction Biology Corporation
T6 sequence (Q9BXA7 1-367): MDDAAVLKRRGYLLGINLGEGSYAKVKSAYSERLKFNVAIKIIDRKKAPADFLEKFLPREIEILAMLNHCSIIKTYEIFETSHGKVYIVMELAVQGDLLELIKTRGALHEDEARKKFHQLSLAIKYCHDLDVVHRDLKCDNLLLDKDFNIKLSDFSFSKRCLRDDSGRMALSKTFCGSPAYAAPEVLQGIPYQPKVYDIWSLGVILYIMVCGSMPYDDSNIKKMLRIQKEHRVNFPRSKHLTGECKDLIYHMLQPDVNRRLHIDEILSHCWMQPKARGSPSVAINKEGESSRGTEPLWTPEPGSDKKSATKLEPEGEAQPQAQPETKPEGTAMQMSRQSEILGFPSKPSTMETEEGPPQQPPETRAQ

[7] = biological target: T7, panel of 374 wild-type kinases (Homo sapiens, UniProt Q9UPE1); details: read-out: % Enzyme Activity (relative to DMSO controls), MSSK1/STK23
T7 construct: purchased Reaction Biology Corporation

[8] = biological target: T8, panel of 374 wild-type kinases (Homo sapiens, UniProt Q9Y2H1); details: read-out: % Enzyme Activity (relative to DMSO controls), kinase STK38L/NDR2
T8 construct: purchased Reaction Biology Corporation
T8 sequence (Q9Y2H1 whole entry): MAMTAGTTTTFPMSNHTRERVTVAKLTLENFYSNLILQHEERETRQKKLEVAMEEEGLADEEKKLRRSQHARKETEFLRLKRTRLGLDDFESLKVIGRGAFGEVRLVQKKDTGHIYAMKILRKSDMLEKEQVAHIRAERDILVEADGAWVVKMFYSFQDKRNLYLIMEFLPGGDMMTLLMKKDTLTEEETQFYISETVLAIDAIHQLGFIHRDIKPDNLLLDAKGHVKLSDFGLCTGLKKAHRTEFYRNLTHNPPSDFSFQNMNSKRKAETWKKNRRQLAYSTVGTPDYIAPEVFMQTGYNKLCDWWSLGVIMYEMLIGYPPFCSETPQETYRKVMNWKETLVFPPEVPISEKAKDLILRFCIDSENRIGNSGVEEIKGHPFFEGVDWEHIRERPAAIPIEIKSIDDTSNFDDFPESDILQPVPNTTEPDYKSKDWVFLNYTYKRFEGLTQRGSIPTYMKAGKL

T3 sequence (Q16620 32-822): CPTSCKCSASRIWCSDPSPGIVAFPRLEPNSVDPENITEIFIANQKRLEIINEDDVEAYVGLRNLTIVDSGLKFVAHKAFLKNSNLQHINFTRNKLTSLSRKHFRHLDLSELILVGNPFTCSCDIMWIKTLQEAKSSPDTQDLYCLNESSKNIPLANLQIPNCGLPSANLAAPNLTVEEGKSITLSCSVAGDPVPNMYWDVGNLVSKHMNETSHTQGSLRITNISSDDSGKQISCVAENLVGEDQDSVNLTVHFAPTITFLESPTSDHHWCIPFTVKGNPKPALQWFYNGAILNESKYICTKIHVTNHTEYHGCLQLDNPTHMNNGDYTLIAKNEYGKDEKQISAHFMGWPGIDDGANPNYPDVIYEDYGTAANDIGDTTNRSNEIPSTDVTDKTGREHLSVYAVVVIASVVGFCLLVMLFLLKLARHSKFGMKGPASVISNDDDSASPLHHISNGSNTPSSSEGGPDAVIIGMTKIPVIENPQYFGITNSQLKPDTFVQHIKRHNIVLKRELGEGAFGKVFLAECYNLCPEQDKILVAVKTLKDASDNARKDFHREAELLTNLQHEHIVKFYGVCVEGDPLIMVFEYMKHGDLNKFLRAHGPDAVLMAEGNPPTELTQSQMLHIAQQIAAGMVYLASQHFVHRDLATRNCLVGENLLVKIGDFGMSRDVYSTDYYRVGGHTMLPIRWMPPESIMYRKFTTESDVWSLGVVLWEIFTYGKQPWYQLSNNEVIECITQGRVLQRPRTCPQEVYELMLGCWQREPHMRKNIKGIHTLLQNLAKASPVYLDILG
T1 sequence (P51957 whole entry): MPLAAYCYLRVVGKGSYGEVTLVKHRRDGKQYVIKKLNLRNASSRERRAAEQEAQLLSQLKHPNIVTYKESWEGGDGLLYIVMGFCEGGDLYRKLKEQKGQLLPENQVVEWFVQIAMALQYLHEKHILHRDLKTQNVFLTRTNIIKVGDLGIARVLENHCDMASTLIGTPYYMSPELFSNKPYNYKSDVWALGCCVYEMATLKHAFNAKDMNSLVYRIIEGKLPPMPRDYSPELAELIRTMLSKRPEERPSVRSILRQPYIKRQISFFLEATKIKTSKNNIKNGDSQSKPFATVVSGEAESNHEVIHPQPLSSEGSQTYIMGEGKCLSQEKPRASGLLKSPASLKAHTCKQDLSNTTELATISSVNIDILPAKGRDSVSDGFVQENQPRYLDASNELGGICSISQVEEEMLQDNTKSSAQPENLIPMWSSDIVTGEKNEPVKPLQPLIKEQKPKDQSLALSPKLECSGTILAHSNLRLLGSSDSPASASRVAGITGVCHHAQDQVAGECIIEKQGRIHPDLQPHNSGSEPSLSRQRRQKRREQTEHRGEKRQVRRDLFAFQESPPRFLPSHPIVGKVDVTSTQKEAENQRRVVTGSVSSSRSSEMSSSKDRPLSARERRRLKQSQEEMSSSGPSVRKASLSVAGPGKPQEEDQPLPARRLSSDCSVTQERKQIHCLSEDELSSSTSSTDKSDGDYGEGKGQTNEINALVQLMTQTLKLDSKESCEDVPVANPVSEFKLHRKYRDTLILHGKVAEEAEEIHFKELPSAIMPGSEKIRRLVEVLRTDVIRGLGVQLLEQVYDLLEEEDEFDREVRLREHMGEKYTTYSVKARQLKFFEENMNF
T7 sequence (Q9UPE1 whole entry): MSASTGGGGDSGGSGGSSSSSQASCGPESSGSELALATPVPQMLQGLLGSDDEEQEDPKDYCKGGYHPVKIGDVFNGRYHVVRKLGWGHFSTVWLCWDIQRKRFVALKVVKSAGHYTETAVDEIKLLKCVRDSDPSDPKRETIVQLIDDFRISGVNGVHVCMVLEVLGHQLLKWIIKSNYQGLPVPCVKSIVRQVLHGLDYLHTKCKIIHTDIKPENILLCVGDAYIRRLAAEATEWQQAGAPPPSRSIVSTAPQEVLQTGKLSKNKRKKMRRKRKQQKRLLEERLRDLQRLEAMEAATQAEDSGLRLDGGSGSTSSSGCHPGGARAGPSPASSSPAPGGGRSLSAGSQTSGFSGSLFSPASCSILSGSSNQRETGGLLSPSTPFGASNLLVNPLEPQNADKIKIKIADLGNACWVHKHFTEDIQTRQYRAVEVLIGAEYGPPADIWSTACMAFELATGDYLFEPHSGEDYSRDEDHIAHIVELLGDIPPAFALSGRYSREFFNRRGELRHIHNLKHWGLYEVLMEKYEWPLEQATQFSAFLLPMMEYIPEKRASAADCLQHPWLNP
T2 sequence (P57059 whole entry): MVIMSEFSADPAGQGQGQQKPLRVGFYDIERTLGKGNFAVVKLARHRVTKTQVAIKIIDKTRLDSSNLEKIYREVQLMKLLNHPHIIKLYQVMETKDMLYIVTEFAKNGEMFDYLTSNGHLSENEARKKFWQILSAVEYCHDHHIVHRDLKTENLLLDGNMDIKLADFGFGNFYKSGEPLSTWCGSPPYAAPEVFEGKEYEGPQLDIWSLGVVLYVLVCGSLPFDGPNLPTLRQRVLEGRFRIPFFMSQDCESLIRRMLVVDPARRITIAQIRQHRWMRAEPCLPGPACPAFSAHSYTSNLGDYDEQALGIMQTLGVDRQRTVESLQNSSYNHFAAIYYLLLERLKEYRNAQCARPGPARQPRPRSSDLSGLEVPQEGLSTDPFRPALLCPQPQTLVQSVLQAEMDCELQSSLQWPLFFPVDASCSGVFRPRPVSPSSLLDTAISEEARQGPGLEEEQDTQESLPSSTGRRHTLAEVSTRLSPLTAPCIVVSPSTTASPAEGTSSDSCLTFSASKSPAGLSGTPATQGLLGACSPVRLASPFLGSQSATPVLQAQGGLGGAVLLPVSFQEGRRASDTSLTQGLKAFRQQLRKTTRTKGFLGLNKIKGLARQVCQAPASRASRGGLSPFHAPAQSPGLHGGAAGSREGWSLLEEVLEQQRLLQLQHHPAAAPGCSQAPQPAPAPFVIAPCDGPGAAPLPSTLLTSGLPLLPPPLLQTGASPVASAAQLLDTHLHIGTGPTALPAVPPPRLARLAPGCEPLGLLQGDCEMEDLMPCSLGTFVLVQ

## O=C(Nc1cnn(-c2csc(C(=O)NC3COC3)c2)c1)Nc1ccccc1Cl [Compound 17, 4-(4-(3-(2-chlorophenyl)ureido)-1H-pyrazol-1-yl)-N-(oxetan-3-yl)thiophene-2-carboxamide]
[1]
  remaining activity at 5 µM: 109%
[2]; read-out: % Enzyme Activity (relative to DMSO controls), kinase SIK1
  remaining activity at 5 µM: 102%
[3]
  remaining activity at 5 µM: 84.2%
[4]
  remaining activity at 5 µM: 107%
[5]
  remaining activity at 5 µM: 99.9%
[6]
  remaining activity at 5 µM: 102%
[7]
  remaining activity at 5 µM: 91.9%
[8]
  remaining activity at 5 µM: 103%

## Cc1sc(C(=O)NC2COC2)cc1-n1cc(NC(=O)Nc2c(F)cccc2Cl)cn1 [Compound 27, 4-(4-(3-(2-chloro-6-fluorophenyl)ureido)-1H-pyrazol-1-yl)-5-methyl-N-(oxetan-3-yl)thiophene-2-carboxamide]
[1]; 10 uM
  remaining activity at 10 µM: 75.5%
[2]; read-out: % Enzyme Activity (relative to DMSO controls), kinase SIK1, 10 uM
  remaining activity at 10 µM: 99.8%
[3]; 10 uM
  remaining activity at 10 µM: 92.4%
[4]; 10 uM
  remaining activity at 10 µM: 99.2%
[5]; 10 uM
  remaining activity at 10 µM: 107%
[6]; 10 uM
  remaining activity at 10 µM: 103%
[7]; 10 uM
  remaining activity at 10 µM: 98.9%
[8]; 10 uM
  remaining activity at 10 µM: 95.1%

## O=C(Nc1cnn(-c2csc(C(=O)NC3COC3)c2)c1)Nc1c(F)cccc1Cl [Compound 25, 4-(4-(3-(2-chloro-6-fluorophenyl)ureido)-1H-pyrazol-1-yl)-N-(oxetan-3-yl)thiophene-2-carboxamide]
[1]
  remaining activity at 5 µM: 90.8%
[2]; kinase SIK1, read-out: % Enzyme Activity (relative to DMSO controls)
  remaining activity at 5 µM: 98.3%
[3]
  remaining activity at 5 µM: 91.5%
[4]
  remaining activity at 5 µM: 92.7%
[5]
  remaining activity at 5 µM: 94.3%
[6]
  remaining activity at 5 µM: 107%
[7]
  remaining activity at 5 µM: 89.8%
[8]
  remaining activity at 5 µM: 94.8%

Reference: patent publication US20240246942A1, “KINASE INHIBITORS FOR THE TREATMENT OF NEURODEGENERATIVE DISEASES” (priority 2020, published 2024)
